Results from patent publication US8138187B2, “Substituted heteroaryl derivatives” (Gruenenthal GmbH, priority 2006, dated 2012).

Biological target: human μ opiate receptor (Homo sapiens, UniProt P35372)
Assay: μ binding, displacement of [3H]-naloxone
Conditions: CHO-K1 membranes expressing human μ opiate receptor; Cheng-Prusoff

Chain of human μ opiate receptor (P35372 whole entry): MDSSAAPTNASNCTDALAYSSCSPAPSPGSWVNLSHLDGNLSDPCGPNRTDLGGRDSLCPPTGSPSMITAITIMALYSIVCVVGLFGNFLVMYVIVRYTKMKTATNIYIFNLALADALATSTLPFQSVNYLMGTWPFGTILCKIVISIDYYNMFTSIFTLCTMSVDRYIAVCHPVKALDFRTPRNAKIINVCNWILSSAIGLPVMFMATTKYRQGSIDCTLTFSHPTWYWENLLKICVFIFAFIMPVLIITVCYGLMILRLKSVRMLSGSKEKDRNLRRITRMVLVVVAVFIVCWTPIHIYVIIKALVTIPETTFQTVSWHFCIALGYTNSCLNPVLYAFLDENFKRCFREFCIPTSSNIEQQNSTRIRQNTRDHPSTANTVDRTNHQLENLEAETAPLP

Compound `CN(C)C1(Cc2ccccc2)CC=C(c2cc3ccccc3n2C)CC1` (stereo not shown) [Example 302, [1-Benzyl-4-(1-methyl-1H-indol-2-yl)cyclohex-3-enyl]dimethylamine] has a Ki of 0.103 µM.
